Measurements from PubChem BioAssay AID2060513 (Molecular Pharmacology Branch, DTP, NCI, 2025).

System: 299254-011-R-J1-PDC complex spheroids viability
Assay: Anticancer human tumor 299254-011-R-J1-PDC patient-derived melanoma cell line growth inhibition [GQUAD]
Conditions: for IC50: curve of first compound; for viability, T/C: stronger effect = lower value
Method in brief: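 Multi-cell-type spheroids of tumor cells with HUVEC and mesenchymal stem cells, treated with drug combinations. Concentrations descend in half-log steps from near clinical Cmax, or from 10 microM where Cmax is unknown; viability read-out.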

[1] = second compound 0.0316 µM, first compound 0.0316 µM
[2] = second compound 0.0316 µM, first compound 0.1 µM
[3] = second compound 0.0316 µM, first compound 0.316 µM
[4] = second compound 0.0316 µM, first compound 1 µM
[5] = second compound 0.0316 µM, first compound 3.16 µM
[6] = second compound 0.0316 µM, first compound 10 µM
[7] = second compound 0.1 µM, first compound 0.0316 µM
[8] = second compound 0.1 µM, first compound 0.1 µM
[9] = second compound 0.1 µM, first compound 0.316 µM
[10] = second compound 0.1 µM, first compound 1 µM
[11] = second compound 0.1 µM, first compound 3.16 µM
[12] = second compound 0.1 µM, first compound 10 µM
[13] = second compound 0.316 µM, first compound 0.0316 µM
[14] = second compound 0.316 µM, first compound 0.1 µM
[15] = second compound 0.316 µM, first compound 0.316 µM
[16] = second compound 0.316 µM, first compound 1 µM
[17] = second compound 0.316 µM, first compound 3.16 µM
[18] = second compound 0.316 µM, first compound 10 µM
[19] = second compound 1 µM, first compound 0.0316 µM
[20] = second compound 1 µM, first compound 0.1 µM
[21] = second compound 1 µM, first compound 0.316 µM
[22] = second compound 1 µM, first compound 1 µM
[23] = second compound 1 µM, first compound 3.16 µM
[24] = second compound 1 µM, first compound 10 µM
[25] = second compound 3.16 µM, first compound 0.0316 µM
[26] = second compound 3.16 µM, first compound 0.1 µM
[27] = second compound 3.16 µM, first compound 0.316 µM
[28] = second compound 3.16 µM, first compound 1 µM
[29] = second compound 3.16 µM, first compound 3.16 µM
[30] = second compound 3.16 µM, first compound 10 µM
[31] = second compound 10 µM, first compound 0.0316 µM
[32] = second compound 10 µM, first compound 0.1 µM
[33] = second compound 10 µM, first compound 0.316 µM
[34] = second compound 10 µM, first compound 1 µM
[35] = second compound 10 µM, first compound 3.16 µM
[36] = second compound 10 µM, first compound 10 µM
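Note: spheroids exposed to the agents for seven days before readout.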
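Throughout, for viability, T/C: percent viability relative to DMSO vehicle control wells = 100%.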

Q: Which IC50 (second compound 0.0316 µM) does the source give for `CC1COCCN1c1cc(C2(O)CC3CCC(C2)O3)c2cnn(-c3ccn[nH]3)c2n1` (stereo unspecified) + CN(C)c1ccc(Nc2c3ccc(NC(=O)CCN4CCCC4)cc3nc3cc(NC(=O)CCN4CCCC4)ccc23)cc1 here?
A: 140 nM

Q: What about the IC50 (second compound 0.1 µM) of the same compound?
A: 99.8 nM

Q: What about the IC50 (second compound 0.316 µM) of the same compound?
A: 180 nM

Q: What about the IC50 (second compound 1 µM) of the same compound?
A: 137 nM

Q: And the IC50 (second compound 3.16 µM)?
A: 147 nM

Q: What about the IC50 (second compound 10 µM) of the same compound?
A: 117 nM

Q: What about the viability, T/C [1] of the same compound?
A: 77.1%

Q: What about the viability, T/C [2] of the same compound?
A: 60.4%

Q: And the viability, T/C [3]?
A: 25.2%

Q: And the viability, T/C [4]?
A: 18%

Q: And the viability, T/C [5]?
A: 13.7%

Q: And the viability, T/C [6]?
A: 6.37%

Q: What about the viability, T/C [7] of the same compound?
A: 87%

Q: And the viability, T/C [8]?
A: 51.1%

Q: What about the viability, T/C [9] of the same compound?
A: 24.2%

Q: What about the viability, T/C [10] of the same compound?
A: 17.4%

Q: What about the viability, T/C [11] of the same compound?
A: 12.4%

Q: And the viability, T/C [12]?
A: 5.43%

Q: What about the viability, T/C [13] of the same compound?
A: 82.9%

Q: What about the viability, T/C [14] of the same compound?
A: 73%

Q: What about the viability, T/C [15] of the same compound?
A: 27.6%

Q: What about the viability, T/C [16] of the same compound?
A: 16.7%

Q: And the viability, T/C [17]?
A: 9.78%

Q: And the viability, T/C [18]?
A: 5.4%

Q: What about the viability, T/C [19] of the same compound?
A: 93.8%

Q: And the viability, T/C [20]?
A: 59.3%

Q: And the viability, T/C [21]?
A: 25.9%

Q: And the viability, T/C [22]?
A: 17.8%

Q: And the viability, T/C [23]?
A: 12.5%

Q: And the viability, T/C [24]?
A: 5.02%

Q: And the viability, T/C [25]?
A: 86.8%

Q: And the viability, T/C [26]?
A: 61%

Q: What about the viability, T/C [27] of the same compound?
A: 27.7%

Q: And the viability, T/C [28]?
A: 19.2%

Q: What about the viability, T/C [29] of the same compound?
A: 14%

Q: What about the viability, T/C [30] of the same compound?
A: 6.53%

Q: What about the viability, T/C [31] of the same compound?
A: 98.5%

Q: What about the viability, T/C [32] of the same compound?
A: 54%

Q: And the viability, T/C [33]?
A: 25.9%

Q: And the viability, T/C [34]?
A: 13.8%

Q: What about the viability, T/C [35] of the same compound?
A: 15.2%

Q: And the viability, T/C [36]?
A: 7.27%

Q: How did the IC50 (second compound 0.0316 µM) turn out when `CC(=O)O[C@H]1C(=O)[C@@]2(C)[C@H]([C@H](OC(=O)c3ccccc3)[C@]3(O)C[C@H](OC(=O)[C@H](O)[C@@H](NC(=O)c4ccccc4)c4ccccc4)C(C)=C1C3(C)C)[C@]1(OC(C)=O)CO[C@@H]1C[C@@H]2O` + CN(C)c1ccc(Nc2c3ccc(NC(=O)CCN4CCCC4)cc3nc3cc(NC(=O)CCN4CCCC4)ccc23)cc1 was run?
A: 461 nM

Q: What about the IC50 (second compound 0.1 µM) of the same compound?
A: 364 nM

Q: What about the IC50 (second compound 0.316 µM) of the same compound?
A: 271 nM

Q: And the IC50 (second compound 1 µM)?
A: 316 nM

Q: And the IC50 (second compound 3.16 µM)?
A: 489 nM

Q: What about the IC50 (second compound 10 µM) of the same compound?
A: 524 nM

Q: What about the viability, T/C [1] of the same compound?
A: 73.9%

Q: What about the viability, T/C [2] of the same compound?
A: 84.6%

Q: And the viability, T/C [3]?
A: 60.9%

Q: And the viability, T/C [4]?
A: 26.3%

Q: What about the viability, T/C [5] of the same compound?
A: 19%

Q: And the viability, T/C [6]?
A: 17.5%

Q: What about the viability, T/C [7] of the same compound?
A: 83.8%

Q: What about the viability, T/C [8] of the same compound?
A: 87.4%

Q: And the viability, T/C [9]?
A: 51.9%

Q: And the viability, T/C [10]?
A: 23.7%

Q: And the viability, T/C [11]?
A: 14.5%

Q: What about the viability, T/C [12] of the same compound?
A: 11.2%

Q: And the viability, T/C [13]?
A: 81.5%

Q: And the viability, T/C [14]?
A: 96%

Q: And the viability, T/C [15]?
A: 44%

Q: And the viability, T/C [16]?
A: 37.1%

Q: What about the viability, T/C [17] of the same compound?
A: 22.6%

Q: And the viability, T/C [18]?
A: 16.4%

Q: What about the viability, T/C [19] of the same compound?
A: 93.8%

Q: And the viability, T/C [20]?
A: 78%

Q: And the viability, T/C [21]?
A: 49.8%

Q: And the viability, T/C [22]?
A: 28.6%

Q: What about the viability, T/C [23] of the same compound?
A: 19.1%

Q: What about the viability, T/C [24] of the same compound?
A: 17.7%

Q: And the viability, T/C [25]?
A: 89.1%

Q: And the viability, T/C [26]?
A: 83.8%

Q: And the viability, T/C [27]?
A: 60.6%

Q: What about the viability, T/C [28] of the same compound?
A: 32.2%

Q: And the viability, T/C [29]?
A: 19.1%

Q: What about the viability, T/C [30] of the same compound?
A: 16.4%

Q: What about the viability, T/C [31] of the same compound?
A: 83.3%

Q: What about the viability, T/C [32] of the same compound?
A: 84.3%

Q: And the viability, T/C [33]?
A: 62.7%

Q: And the viability, T/C [34]?
A: 33%

Q: What about the viability, T/C [35] of the same compound?
A: 17.4%

Q: And the viability, T/C [36]?
A: 15.1%

Q: Which results are given for `CC1COCCN1c1cc(C2(S(C)(=N)=O)CC2)nc(-c2ccnc3[nH]ccc23)n1` (stereo unspecified) + CN(C)c1ccc(Nc2c3ccc(NC(=O)CCN4CCCC4)cc3nc3cc(NC(=O)CCN4CCCC4)ccc23)cc1?
A: IC50 (second compound 0.0316 µM): 6240 nM; IC50 (second compound 0.1 µM): 3930 nM; IC50 (second compound 0.316 µM): 5060 nM; IC50 (second compound 1 µM): 4480 nM; IC50 (second compound 3.16 µM): 3630 nM; IC50 (second compound 10 µM): 2910 nM; viability, T/C [1]: 99.6%; viability, T/C [2]: 106%; viability, T/C [3]: 98%; viability, T/C [4]: 93.1%; viability, T/C [5]: 75.6%; viability, T/C [6]: 32.2%; viability, T/C [7]: 116%; viability, T/C [8]: 128%; viability, T/C [9]: 101%; viability, T/C [10]: 77.5%; viability, T/C [11]: 59.7%; viability, T/C [12]: 27.9%; viability, T/C [13]: 105%; viability, T/C [14]: 98.2%; viability, T/C [15]: 131%; viability, T/C [16]: 82.4%; viability, T/C [17]: 71.4%; viability, T/C [18]: 23.5%; viability, T/C [19]: 114%; viability, T/C [20]: 95.3%; viability, T/C [21]: 85%; viability, T/C [22]: 78%; viability, T/C [23]: 65.5%; viability, T/C [24]: 27.9%; viability, T/C [25]: 125%; viability, T/C [26]: 100%; viability, T/C [27]: 87.3%; viability, T/C [28]: 80.4%; viability, T/C [29]: 53.2%; viability, T/C [30]: 28.3%; viability, T/C [31]: 105%; viability, T/C [32]: 117%; viability, T/C [33]: 101%; viability, T/C [34]: 98%; viability, T/C [35]: 46.1%; viability, T/C [36]: 32%
